What was measured:
Type in all cases: physicochemical
[1] = Apparent pKa of LNP formulations, TNS fluorescence assay; conditions: LNP cationic lipid/DSPC/cholesterol/DMG-PEG 50/10/38.5/1.5 mol %
Method: As reported in literature, the apparent pKa of LNP formulations correlates with the delivery efficiency of LNPs for nucleic acids in vivo. The apparent pKa of each formulation was determined using an assay based on fluorescence of 2-(p-toluidino)-6-napthalene sulfonic acid (TNS). LNP formulations comprising of cationic lipid/DSPC/cholesterol/DMG-PEG (50/10/38.5/1.5 mol %) in PBS were prepared as described above. TNS was prepared as a 300 μM stock solution in distilled water. LNP formulations were diluted to 0.1 mg/mL total lipid in 3 mL of buffered solutions containing 50 mM sodium citrate, 50 mM sodium phosphate, 50 mM sodium borate, and 30 mM sodium chloride where the pH ranged from 3 to 9. An aliquot of the TNS solution was added to give a final concentration of […] and following vortex mixing fluorescence intensity was measured at room temperature in a Molecular Devices Spectramax iD3 spectrometer using excitation and mission wavelengths of 325 nm and 435 nm. A sigmoidal best fit analysis was applied to the fluorescence data and the pKa value was measured as the pH giving rise to half-maximal fluorescent intensity.

[2] = Lipid nanoparticle size and polydispersity by dynamic light scattering; conditions: LNP of lipid/DSPC/cholesterol/PEG-lipid 50:10:38.5:1.5 encapsulating hEPO mRNA
Method: (§1) Briefly, a cationic lipid provided herein, DSPC, cholesterol, and PEG-lipid were solubilized in ethanol at a molar ratio of 50:10:38.5:1.5, and mRNA were diluted in 10 to 50 mM citrate buffer, pH=4. The LNPs were prepared at a total lipid to mRNA weight ratio of approximately 10:1 to 30:1 by mixing the ethanolic lipid solution with the aqueous mRNA solution at a volume ratio of 1:3 using a microfluidic apparatus, total flow rate ranging from 9-30 mL/min. Ethanol were thereby removed and replaced by DPBS using dialysis. Finally, the lipid nanoparticles were filtered through a […] sterile filter.
(§2) Lipid nanoparticle size were determined by dynamic light scattering using a Malvern Zetasizer Nano ZS (Malvern UK) using a […] backscatter detection mode. The encapsulation efficiency of lipid nanoparticles were determined using a Quant-it Ribogreen RNA quantification assay kit (Thermo Fisher Scientific, UK) according to the manufacturer's instructions.

[3] = Encapsulation efficiency of lipid nanoparticles, Quant-it Ribogreen RNA assay; conditions: LNP of lipid/DSPC/cholesterol/PEG-lipid 50:10:38.5:1.5 encapsulating hEPO mRNA
Method: as §1, §2

SMILES | Apparent Pka [1] | polydispersity [2] | size (nm) [2] [nm] | Encapsulation Efficiency [3] [%]
CCCCCCCCC(CCCCCCCC)CC(=O)NCCCCCN(CCO)CCN(CCCCCNC(=O)CC(CCCCCCCC)CCCCCCCC)C1CCC1 [Compound 60] | 6.761 | 0.039 | 59.89 | 91.7
CCCCCCCCC(CCCCCC)CNC(=O)CCCCN(CCO)CCN(CCCCC(COC(=O)CCCCCCC)COC(=O)CCCCCCC)C1CCCCCCC1 (centres unmarked) [Compound 214] | 6.789 | 0.058 | 76.29 | 89.14
CCCCCCCCC(CCCCCC)COC(=O)CCCCCN(CCO)CCN(CCCCCC(=O)OCC(CCCCCC)CCCCCCCC)C1CCCC1 (centres unmarked) [Compound 8] | 6.401 | 0.136 | 65.15 | 95.8
CCCCCCCCCCCOC(=O)CCCCCN(CCN(CCO)CCCCCCCC(=O)OCC(CCCCCCCC)CCCCCCCC)C1CCCCC1 [Compound 48] | 6.295 | 0.037 | 73.5 | 92.1
CCCCCCCCC(CCCCCCCC)COC(=O)CCCCCN1CCC(N(CCO)CCCCC(COC(=O)CCCCCCC)COC(=O)CCCCCCC)CC1 [Compound 261] | 6.552 | 0.066 | 82.86 | 95.18
CCCCCCCCCCCOC(=O)CCOCCN(CCN(CCO)CCOCCC(=O)OCC(CCCCCCCC)CCCCCCCC)C1CCC1 [Compound 116] | 6.826 | 0.102 | 77.45 | 87.45
CCCCCCCCC(CCCCCCCC)COC(=O)CCCCCN(CCO)CCN(CCCCCC(=O)OCC(CCCCCCCC)CCCCCCCC)Cc1ccc(O)cc1 [Compound 56] | 6.702 | 0.174 | 57.44 | 92.96
CCCCCCCCCCCOC(=O)CCCCCN(CCN(CCO)CCCCCC(=O)OCC(CCCCCC)CCCCCCCC)C1CCCC1 (centres unmarked) [Compound 5] | 6.56 | 0.073 | 99.12 | 92.7
CCCCCCCCCCCNC(=O)CCCCCN(CCN(CCO)CCCCC(COC(=O)CCCCCCC)COC(=O)CCCCCCC)C1CCC1 [Compound 188] | 6.738 | 0.085 | 111.8 | 86.80
CCCCCCCCC(CCCCCCCC)COC(=O)CCCCCN(CCO)CCN(CCCCCOC(=O)N(CCCCCCCC)CCCCCCCC)C1CCCCC1 [Compound 127] | 6.226 | 0.090 | 69.05 | 91.77
CCCCCCCCC(CCCCCCCC)CNC(=O)CCCCCN(CCNc1c(NC)c(=O)c1=O)CCN(C)CCCCCC(=O)OCC(CCCCCCCC)CCCCCCCC [Compound 96] | 7.287 | 0.087 | 57.20 | 97.00
CCCCCCCCC(CCCCCCCC)COC(=O)CCCCCN(CCO)CCN(CCCCCC(=O)OCC(CCCCCCCC)CCCCCCCC)CCC(C)C [Compound 118] | 6.044 | 0.121 | 57.96 | 94.10
CCCCCCCCCCCC(=O)OCCCCCN(CCN(CCO)CCOCCOC(=O)CC(CCCCCCCC)CCCCCCCC)C1CCC1 [Compound 97] | 6.912 | 0.045 | 76.13 | 88.12
CCCCCCCCC(CCCCCC)COC(=O)CCCCCN(CCCCN(CCO)CCCCC(COC(=O)CCCCCCC)COC(=O)CCCCCCC)C1CCCCCC1 (centres unmarked) [Compound 193] | 6.666 | 0.228 | 80.39 | 84.30
CCCCCCCCCOC(=O)CCCCCCCN1CCC(N(CCO)CCCCCCCC(=O)OC(CCCCCCCC)CCCCCCCC)CC1 [Compound 177] | 6.668 | 0.059 | 95.00 | 93.69
CCCCCCCCC(CCCCCC)COC(=O)CCCCCN(CCO)CCN(CCCCC(COC(=O)CCCCCCC)COC(=O)CCCCCCC)C1CCCC1 (centres unmarked) [Compound 137] | 6.494 | 0.040 | 67.32 | 89.36
CCCCCCCCC(CCCCCC)COC(=O)CCCCCN(CCO)CCN(CCCCCC(=O)OCC(CCCCCC)CCCCCCCC)C1CCC1 (centres unmarked) [Compound 7] | 6.427 | 0.06 | 72.78 | 96.5
CCCCCCCCCCCC(=O)OCCCCCN(CCN(CCO)CCCCCOC(=O)CC(CCCCCCCC)CCCCCCCC)C1CCCCC1 [Compound 57] | 6.509 | 0.044 | 79.95 | 91.7

Second part, the compound after the results:

Apparent Pka [1] | polydispersity [2] | size (nm) [2] [nm] | Encapsulation Efficiency [3] [%] | SMILES
6.316 | 0.07 | 99.33 | 93.71 | CCCCCCCCCCCOC(=O)CCCCCN(CCN(CCO)CCCCC(COC(=O)CCCCCCC)COC(=O)CCCCCCC)C1CCCCC1 [Compound 221]
6.402 | 0.051 | 63.5 | 90.9 | CCCCCCCCCCCOC(=O)CCCCCN(CCO)CCN(CCCCCC(=O)OCC(CCCCCCCC)CCCCCCCC)C1CCCCC1 [Compound 45]
6.646 | 0.031 | 83.28 | 91.68 | CCCCCCCC/C=C\CCCCCCCC(=O)OCCCCCN(CCO)CCN(CCCCCNC(=O)CC(CCCCCC)CCCCCCCC)C1CCCCCC1 (centres unmarked) [Compound 152]
5.802 | 0.093 | 49.69 | 89.3 | CCCCCCCCC(CCCCCCCC)COC(=O)CCCCCN(CCO)CCN(CCCCCC(=O)OCC(CCCCCCCC)CCCCCCCC)Cc1ccccc1 [Compound 36]
6.337 | 0.056 | 96.32 | 89.15 | CCCCCCCC(=O)OCC(COCCN(CCO)CCN(CCOCC(COC(=O)CCCCCCC)COC(=O)CCCCCCC)C1CCC1)COC(=O)CCCCCCC [Compound 178]
6.305 | 0.052 | 57.51 | 87.6 | CCCCCCCCC(CCCCCCCC)COC(=O)CCCCCN(CCO)CCN(CCCCCC(=O)OCC(CCCCCCCC)CCCCCCCC)C1CCOC1 (centres unmarked) [Compound 33]
6.322 | 0.041 | 103.40 | 89.97 | CCCCCCCC(=O)OCC(COCCN(CCO)CCN(CCOCC(COC(=O)CCCCCCC)COC(=O)CCCCCCC)C1CCCCC1)COC(=O)CCCCCCC [Compound 179]
6.061 | 0.101 | 56.95 | 87.11 | CCCCCCCCC(CCCCCC)COC(=O)CCCCCN(CCO)CCN(CCCCC(COC(=O)CCCCCCC)COC(=O)CCCCCCC)C1CC1 (centres unmarked) [Compound 154]
